The target in data set [1] is CYP2C19 (Homo sapiens, UniProt P33261). Kind of data set: CYP2C19 inhibition in human liver microsomes (S-mephenytoin 4-hydroxylation). It counts as in vitro ADME. The conditions noted are these: 100 μM bergenin, pooled HLMs. How it is done: (§1) All incubations were performed in triplicate, and the mean values were utilized.
(§2) There was a 3 min pre-incubation period (at 37 °C) before the reaction was initiated by adding an NADPH-generating system. The reaction was terminated by adding a 100 μL acetonitrile (10% trichloroacetic acid for CYP2A6) internal standard mix, and the solution was placed on ice. The mixture was centrifuged at 12,000 rpm for 10 min, and an aliquot (50 μL) of the supernatant was transferred for HPLC analysis. The instrument used in this study were Agilent 1260 series instrument (Palo Alto, CA, USA) with DAD and FLD detector, and the quantitative assay for the corresponding metabolites was performed as previously reported (Lang et al. [2017]; Zhang et al. [2017]).

The target of data set [2] is T1, CYP3A4 (Homo sapiens, UniProt P08684). Kind of data set: Time-dependent inhibition study in HLMs, CYP3A4. Type of data set: in vitro ADME. The protocol:
(§3) After incubation, an aliquot (20 μL) was transferred to another incubation tube (final volume 200 μL) containing an NADPH-generating system and probe substrates whose final concentrations were approximate to Km. Then, further incubations were performed to measure the residual activity. After being incubated for different time (30 min for CYP2E1 and CYP2C9, 10 min for CYP3A4), the reactions were terminated by adding a 100 μL acetonitrile internal standard mix and then placed on ice; the corresponding metabolites were determined by HPLC.
Figure 7. […] The initial rate constant of inactivation of CYP3A4 by each concentration (Kobs) was determined through linear regression analysis of the natural logarithm of the percentage of remaining activity versus pre-incubation time (A).

Data set [3] addresses CYP2D6 (Homo sapiens, UniProt P10635). Kind of data set: CYP2D6 inhibition in human liver microsomes (dextromethorphan O-demethylation). Type of data set: in vitro ADME. The settings on record: 100 μM bergenin, pooled HLMs. How it is done:
as §1, §2
Background: Liver microsomes are vesicles of endoplasmic reticulum, rich in cytochrome P450 enzymes.

The target of data set [4] is T2, CYP2C8 (Homo sapiens, UniProt P10632).
T2 construct: from tissue; host or cells: pooled human liver microsomes
T2 sequence (P10632 1-490): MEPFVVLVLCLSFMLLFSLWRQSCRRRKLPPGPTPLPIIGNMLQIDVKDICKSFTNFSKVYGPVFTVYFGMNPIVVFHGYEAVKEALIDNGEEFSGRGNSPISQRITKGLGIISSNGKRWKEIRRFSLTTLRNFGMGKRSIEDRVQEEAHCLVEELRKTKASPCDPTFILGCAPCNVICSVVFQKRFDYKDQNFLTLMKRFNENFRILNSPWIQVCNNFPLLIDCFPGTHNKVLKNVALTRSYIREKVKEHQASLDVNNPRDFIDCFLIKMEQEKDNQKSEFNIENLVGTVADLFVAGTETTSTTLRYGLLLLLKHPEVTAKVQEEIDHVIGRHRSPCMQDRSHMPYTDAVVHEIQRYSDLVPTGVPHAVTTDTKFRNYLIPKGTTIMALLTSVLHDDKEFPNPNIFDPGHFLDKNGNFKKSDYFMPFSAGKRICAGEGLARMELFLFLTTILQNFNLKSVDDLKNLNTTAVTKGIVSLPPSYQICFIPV
Kind of data set: CYP2C8 inhibition in human liver microsomes (paclitaxel 6α-hydroxylation). It counts as in vitro ADME. The conditions noted are these: 100 μM bergenin, pooled HLMs. The protocol: as §1, §2

Data set [5] addresses T3, CYP2A6 (Homo sapiens, UniProt P11509).
T3 construct: from tissue; host or cells: pooled human liver microsomes
T3 sequence (P11509 1-494): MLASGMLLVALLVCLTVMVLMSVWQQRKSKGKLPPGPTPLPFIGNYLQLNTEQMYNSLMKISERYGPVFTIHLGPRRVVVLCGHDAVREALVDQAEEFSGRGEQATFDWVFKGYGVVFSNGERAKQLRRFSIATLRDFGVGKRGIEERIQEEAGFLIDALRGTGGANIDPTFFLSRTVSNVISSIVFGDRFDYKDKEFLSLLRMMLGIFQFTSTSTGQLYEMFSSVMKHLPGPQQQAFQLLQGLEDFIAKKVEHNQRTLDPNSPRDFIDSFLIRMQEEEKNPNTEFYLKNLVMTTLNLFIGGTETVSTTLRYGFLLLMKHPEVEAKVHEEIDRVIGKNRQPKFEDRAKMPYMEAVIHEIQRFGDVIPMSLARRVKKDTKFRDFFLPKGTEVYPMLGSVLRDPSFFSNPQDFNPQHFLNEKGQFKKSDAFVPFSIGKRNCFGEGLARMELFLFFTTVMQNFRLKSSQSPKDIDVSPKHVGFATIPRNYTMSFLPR
Description: CYP2A6 inhibition in human liver microsomes (coumarin 7-hydroxylation). It counts as in vitro ADME. The conditions noted are these: 100 μM bergenin, pooled HLMs. How it is done:
as §1, §2

Data set [6] deals with T4, CYP2E1 (Homo sapiens, UniProt P05181).
T4 construct: CYP2E1 catalyzed reactions (chlorzoxazone 6-hydroxylation) in pooled HLM; from tissue; host or cells: pooled human liver microsomes
T4 sequence (P05181 whole entry): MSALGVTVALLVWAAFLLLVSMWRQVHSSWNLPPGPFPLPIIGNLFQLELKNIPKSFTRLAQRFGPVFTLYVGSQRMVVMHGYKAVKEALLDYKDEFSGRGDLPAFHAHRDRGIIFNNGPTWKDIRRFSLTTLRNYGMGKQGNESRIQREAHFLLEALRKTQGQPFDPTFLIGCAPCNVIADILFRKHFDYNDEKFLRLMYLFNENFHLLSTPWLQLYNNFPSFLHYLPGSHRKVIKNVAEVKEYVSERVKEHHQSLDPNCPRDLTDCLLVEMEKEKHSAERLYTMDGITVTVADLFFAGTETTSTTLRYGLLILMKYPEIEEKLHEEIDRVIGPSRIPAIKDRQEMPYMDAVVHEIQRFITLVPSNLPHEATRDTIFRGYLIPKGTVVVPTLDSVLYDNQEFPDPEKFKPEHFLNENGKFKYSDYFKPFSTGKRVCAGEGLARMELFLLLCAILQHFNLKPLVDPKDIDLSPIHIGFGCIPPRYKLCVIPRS
Description: Time-dependent inhibition study in HLMs, CYP2E1. It counts as in vitro ADME. The conditions noted are these: bergenin 20 μM, pre-incubation with HLM and NADPH for 30 min. How it is done: as §3

Data set [7] has as its target CYP1A2 (Homo sapiens, UniProt P05177). Description: CYP1A2 inhibition in human liver microsomes (phenacetin O-deethylation). Type of data set: in vitro ADME. The conditions noted are these: 100 μM bergenin, pooled HLMs. How it is done: as §1, §2
For data set [8], the target named is T5, CYP2C9 (Homo sapiens, UniProt P11712). Description: CYP2C9 inhibition in human liver microsomes (diclofenac 4′-hydroxylation). The conditions noted are these: pooled HLMs. It counts as in vitro ADME. How it is done: as §1, §2
T5 sequence (P11712 whole entry): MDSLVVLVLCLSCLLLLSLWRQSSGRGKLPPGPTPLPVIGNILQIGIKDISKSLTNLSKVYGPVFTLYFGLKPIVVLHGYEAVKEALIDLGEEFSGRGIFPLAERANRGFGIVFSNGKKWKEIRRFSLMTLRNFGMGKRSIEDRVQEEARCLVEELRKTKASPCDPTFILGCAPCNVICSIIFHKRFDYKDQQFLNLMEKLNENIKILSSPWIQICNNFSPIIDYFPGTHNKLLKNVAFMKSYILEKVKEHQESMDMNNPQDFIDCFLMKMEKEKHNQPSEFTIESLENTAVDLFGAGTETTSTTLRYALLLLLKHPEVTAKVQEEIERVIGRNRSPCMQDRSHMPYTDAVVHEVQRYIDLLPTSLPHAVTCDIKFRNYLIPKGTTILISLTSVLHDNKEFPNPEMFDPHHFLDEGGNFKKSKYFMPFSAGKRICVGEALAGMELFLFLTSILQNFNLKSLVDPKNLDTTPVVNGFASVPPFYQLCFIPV
(§4) The enzyme kinetic parameters for the probe reaction were estimated from the best fit line using least-squares linear regression of the inverse substrate concentration versus the inverse velocity (Lineweaver–Burk plots), and the mean values were used to calculate Vmax and Km. Inhibition data from the experiments that were conducted using multiple compound concentrations were represented by Dixon plots, and inhibition constant (Ki) values were calculated using non-linear regression according to the following equation: v = (VmaxS)/(Km(1 + I/Ki) + S), where I is the concentration of the compound, Ki is the inhibition constant, S is the concentration of the substrate and Km is the substrate concentration at half the maximum velocity (Vmax) of the reaction. The mechanism of the inhibition was inspected using the Lineweaver–Burk plots and the enzyme inhibition models. The data comparison was performed using the Student’s t-test and performed using IBM SPSS statistics 20 (SPSS Inc., Chicago, IL).

Data set [9] concerns the target T4, CYP2E1. Kind of data set: CYP2E1 inhibition in human liver microsomes (chlorzoxazone 6-hydroxylation). It counts as in vitro ADME. The protocol: as §1, §2, §4
On the set-up of data set [10]: method as in Pan et al. [2016]. The conditions noted are these: rats, oral dose 100 mg/kg, ref Pan et al. [2016], cited from earlier work.
In data set [11] the target is T5, CYP2C9. Kind of data set: Time-dependent inhibition study in HLMs, CYP2C9. It counts as in vitro ADME. The settings on record: bergenin 20 μM, pre-incubation with HLM and NADPH for 30 min. The protocol: as §3
The target in data set [12] is T1, CYP3A4. Kind of data set: CYP3A4 inhibition in human liver microsomes (testosterone 6β-hydroxylation). It counts as in vitro ADME. The protocol: as §1, §2
The enzyme kinetic parameters for the probe reaction were estimated from the best fit line using least-squares linear regression of the inverse substrate concentration versus the inverse velocity (Lineweaver–Burk plots), and the mean values were used to calculate Vmax and Km. […]

[13] abbreviates: Lineweaver–Burk plots, pooled HLMs.

Consider one compound from PMC6282425 (Pharmaceutical Biology, 2018).

Each structure is given as a SMILES string. Bounds are passed on as bounds.

T1 sequence (P08684 whole entry): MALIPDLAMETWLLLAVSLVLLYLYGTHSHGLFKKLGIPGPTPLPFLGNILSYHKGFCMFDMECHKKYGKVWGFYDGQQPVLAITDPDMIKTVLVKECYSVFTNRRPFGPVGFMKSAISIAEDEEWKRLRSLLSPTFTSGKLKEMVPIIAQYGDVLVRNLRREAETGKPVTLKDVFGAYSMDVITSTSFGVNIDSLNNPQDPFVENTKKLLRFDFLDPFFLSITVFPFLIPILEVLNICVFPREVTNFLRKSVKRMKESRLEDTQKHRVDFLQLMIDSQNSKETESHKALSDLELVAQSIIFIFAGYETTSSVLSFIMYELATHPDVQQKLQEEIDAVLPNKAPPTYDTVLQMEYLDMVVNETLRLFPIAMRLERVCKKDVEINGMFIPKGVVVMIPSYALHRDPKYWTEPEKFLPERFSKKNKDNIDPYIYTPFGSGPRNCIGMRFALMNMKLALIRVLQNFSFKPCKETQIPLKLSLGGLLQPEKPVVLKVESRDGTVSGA
Chain of CYP1A2 (P05177 whole entry): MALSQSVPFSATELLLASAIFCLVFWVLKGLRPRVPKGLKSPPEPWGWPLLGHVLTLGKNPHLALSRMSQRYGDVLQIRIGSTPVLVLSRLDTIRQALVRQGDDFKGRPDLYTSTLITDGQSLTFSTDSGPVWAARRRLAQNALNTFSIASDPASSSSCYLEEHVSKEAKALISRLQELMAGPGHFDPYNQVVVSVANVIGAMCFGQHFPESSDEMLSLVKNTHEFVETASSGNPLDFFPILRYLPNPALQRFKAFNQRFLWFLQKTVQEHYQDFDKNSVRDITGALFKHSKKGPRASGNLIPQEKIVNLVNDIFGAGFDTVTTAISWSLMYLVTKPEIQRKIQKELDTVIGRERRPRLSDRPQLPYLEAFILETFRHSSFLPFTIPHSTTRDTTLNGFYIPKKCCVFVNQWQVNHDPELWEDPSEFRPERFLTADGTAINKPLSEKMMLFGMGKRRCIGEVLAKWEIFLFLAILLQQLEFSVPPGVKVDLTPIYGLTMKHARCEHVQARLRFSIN
Chain of CYP2C19 (P33261 whole entry): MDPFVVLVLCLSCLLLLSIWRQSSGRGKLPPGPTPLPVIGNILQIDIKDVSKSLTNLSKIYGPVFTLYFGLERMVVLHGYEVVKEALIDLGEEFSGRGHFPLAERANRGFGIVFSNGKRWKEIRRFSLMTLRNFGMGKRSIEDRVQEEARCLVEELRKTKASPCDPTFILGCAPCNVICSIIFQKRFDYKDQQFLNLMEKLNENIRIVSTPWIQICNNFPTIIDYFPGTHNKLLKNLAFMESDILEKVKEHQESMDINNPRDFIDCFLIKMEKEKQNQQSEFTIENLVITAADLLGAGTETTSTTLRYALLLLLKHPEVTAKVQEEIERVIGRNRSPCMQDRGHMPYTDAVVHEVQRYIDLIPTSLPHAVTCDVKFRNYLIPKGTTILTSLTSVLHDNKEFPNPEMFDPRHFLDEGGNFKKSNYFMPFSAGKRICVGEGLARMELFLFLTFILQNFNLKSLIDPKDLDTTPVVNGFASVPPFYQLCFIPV
Chain of CYP2D6 (P10635 whole entry): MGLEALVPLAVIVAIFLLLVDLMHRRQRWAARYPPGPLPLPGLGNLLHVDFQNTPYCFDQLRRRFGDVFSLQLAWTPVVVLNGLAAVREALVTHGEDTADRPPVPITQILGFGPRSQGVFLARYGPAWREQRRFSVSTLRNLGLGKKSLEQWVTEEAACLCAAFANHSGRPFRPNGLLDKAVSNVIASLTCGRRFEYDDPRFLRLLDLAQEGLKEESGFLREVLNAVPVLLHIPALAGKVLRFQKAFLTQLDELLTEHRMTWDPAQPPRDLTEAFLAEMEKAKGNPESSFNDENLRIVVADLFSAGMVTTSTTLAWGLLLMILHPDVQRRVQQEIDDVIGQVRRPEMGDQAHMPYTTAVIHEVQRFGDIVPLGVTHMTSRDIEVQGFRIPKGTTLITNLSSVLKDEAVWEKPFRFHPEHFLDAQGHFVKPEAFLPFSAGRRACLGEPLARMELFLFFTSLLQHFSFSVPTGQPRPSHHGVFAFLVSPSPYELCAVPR

Take `COc1c(O)cc2c(c1O)[C@@H]1O[C@H](CO)[C@@H](O)[C@H](O)[C@H]1OC2=O` [bergenin, Bergenin]: the “Inhibition of CYP2C19 activity” value in data set [1] was “did not inhibit”. For the same compound, the “Time-dependent inhibition, activity of CYP3A4” value in data set [2] (bergenin 20 μM, pre-incubation with HLM and NADPH for 30 min) was “decreased with the incubation time”. In [2] (saturating concentration of bergenin incubated with HLM, implied by Kinact), the “CYP3A4 inactivated each minute” value is reported as “approximately 2.5%”. For the same compound, the “Inhibition of CYP2D6 activity” value in [3] is on record as “did not inhibit”. For the same compound, the “Inhibition of CYP2C8 activity” value in data set [4] is “did not inhibit”. Moreover, the “Inhibition of CYP2A6 activity” value in [5] was “did not inhibit”. For the same compound, the “Time-dependent inhibition, activity of CYP2E1” value in [6] is “not affected”. Further, in [7], the “Inhibition of CYP1A2 activity” value is listed as “did not inhibit”. Moreover, the “Inhibition mode CYP2C9” value in data set [8] (Lineweaver–Burk plots) is recorded as “competitive”. The IC50 was 15.1 µM in data set [8] (diclofenac 4′-hydroxylation) and 22.8 µM in [9] (pooled HLMs, chlorzoxazone 6-hydroxylation). The Ki was 8.89 µM in [8] (secondary Lineweaver–Burk plot, diclofenac 2–20 μM) and 11.4 µM in data set [9] (pooled HLMs, secondary Lineweaver–Burk plot, chlorzoxazone 25–200 μM). Further, the “Inhibition mode CYP2E1” value in data set [9] (setting [13]) is “competitive”. The activity at 100 μM in data set [9] (human, pooled human liver microsomes, pH 7.4, probe chlorzoxazone (6-hydroxylation), read-out: CYP2E1 activity, % of control activity) was 12.2%; in [12] (human, pooled human liver microsomes, pH 7.4, probe testosterone (6β-hydroxylation), read-out: CYP3A4 activity, % of control activity), 11%. Also, in [10], the “Plasma Cmax” value was “less than 300 ng/mL”. In [10] (read-out: Plasma Cmax), the peak concentration (Cmax) was below 900 nM. The “Time-dependent inhibition, activity of CYP2C9” value in data set [11] is reported as “not affected”. For the same compound, the “Inhibition mode CYP3A4” value in [12] (setting [13]) is given as “non-competitive”.

For orientation: IC50 means the concentration that gives 50% inhibition. The low end stands for inhibition by little substance, the high end for a need for much substance. As usually defined, the Ki is a measure of affinity in units of concentration, obtained from inhibition or displacement. A high value points to a looser hold on the target. As a reminder, the Cmax is the peak of the concentration-time curve.
